Experimental data taken from PubChem BioAssay (NCI).
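Step 1: Grow cells in 96-well plates. Step 2: Expose to compound for 48 hours at 5 concentrations. Step 3: Interpolate endpoints linearly; if unreached, use highest concentration. GI50 is the concentration that inhibits growth by half. Definition used: TGI = concentration required for complete inhibition of growth.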

Tests used:
Experiment in all cases: NCI anticancer screen, dose series, 48 h
DU-145 prostate = test system: DU-145 prostate
NCI-H226 lung = test system: NCI-H226 lung
T-47D breast = test system: T-47D breast
RPMI-8226 leukemia = test system: RPMI-8226 leukemia
SF-268 CNS = test system: SF-268 CNS
SK-OV-3 ovarian = test system: SK-OV-3 ovarian
NCI-H460 lung = test system: NCI-H460 lung
HL-60(TB) leukemia = test system: HL-60(TB) leukemia
MALME-3M melanoma = test system: MALME-3M melanoma
SNB-19 CNS = test system: SNB-19 CNS
HOP-92 NSCLC = test system: HOP-92 NSCLC
UACC-257 melanoma = test system: UACC-257 melanoma
NCI-H23 lung = test system: NCI-H23 lung
LOX IMVI melanoma = test system: LOX IMVI melanoma
OVCAR-3 ovarian = test system: OVCAR-3 ovarian
U251 CNS = test system: U251 CNS
HT29 colon = test system: HT29 colon
MDA-MB-231 breast = test system: MDA-MB-231 breast
RXF 393 renal = test system: RXF 393 renal
NCI/ADR-RES ovarian = test system: NCI/ADR-RES ovarian
SK-MEL-2 melanoma = test system: SK-MEL-2 melanoma
SR leukemia = test system: SR leukemia
UO-31 renal = test system: UO-31 renal
A498 renal = test system: A498 renal
SF-539 CNS = test system: SF-539 CNS
IGROV1 ovarian = test system: IGROV1 ovarian
MDA-MB-435 = test system: MDA-MB-435
CCRF-CEM leukemia = test system: CCRF-CEM leukemia
KM12 colon = test system: KM12 colon
OVCAR-4 ovarian = test system: OVCAR-4 ovarian
HS 578T breast = test system: HS 578T breast
SK-MEL-5 melanoma = test system: SK-MEL-5 melanoma
SNB-75 CNS = test system: SNB-75 CNS
TK-10 renal = test system: TK-10 renal
MCF7 breast = test system: MCF7 breast
NCI-H522 lung = test system: NCI-H522 lung
BT-549 breast = test system: BT-549 breast
A549 NSCLC = test system: A549 NSCLC
SW-620 colon = test system: SW-620 colon
HCT-116 colon = test system: HCT-116 colon
OVCAR-5 ovarian = test system: OVCAR-5 ovarian
M14 melanoma = test system: M14 melanoma
EKVX NSCLC = test system: EKVX NSCLC
HOP-62 NSCLC = test system: HOP-62 NSCLC
OVCAR-8 ovarian = test system: OVCAR-8 ovarian
CAKI-1 renal = test system: CAKI-1 renal
SK-MEL-28 melanoma = test system: SK-MEL-28 melanoma
SN12C renal = test system: SN12C renal
UACC-62 melanoma = test system: UACC-62 melanoma
MOLT-4 leukemia = test system: MOLT-4 leukemia
HCC-2998 colon = test system: HCC-2998 colon
HCT-15 colon = test system: HCT-15 colon
PC-3 prostate = test system: PC-3 prostate
COLO 205 colon = test system: COLO 205 colon
ACHN renal = test system: ACHN renal
786-0 renal = test system: 786-0 renal

SMILES: COc1cc(-c2nn(C(=O)NS(=O)(=O)c3ccc(C)cc3)cc2-c2ccncc2)ccc1Cl
- GI50 (DU-145 prostate): 6.88 µM
- TGI (DU-145 prostate): 75.7 µM
- GI50 (NCI-H226 lung): 2.88 µM
- TGI (NCI-H226 lung): 14.8 µM
- GI50 (T-47D breast): 6.34 µM
- TGI (T-47D breast): 31.2 µM
- GI50 (RPMI-8226 leukemia): 15.5 µM
- TGI (RPMI-8226 leukemia): > 100 µM
- GI50 (SF-268 CNS): 4.32 µM
- TGI (SF-268 CNS): > 100 µM
- GI50 (SK-OV-3 ovarian): 3.38 µM
- TGI (SK-OV-3 ovarian): 13.6 µM
- GI50 (NCI-H460 lung): 13.3 µM
- TGI (NCI-H460 lung): 38.5 µM
- GI50 (HL-60(TB) leukemia): 4.63 µM
- TGI (HL-60(TB) leukemia): 24.9 µM
- GI50 (MALME-3M melanoma): 4.14 µM
- TGI (MALME-3M melanoma): 15.6 µM
- GI50 (SNB-19 CNS): 4.9 µM
- TGI (SNB-19 CNS): 38.5 µM
- GI50 (HOP-92 NSCLC): 10.3 µM
- TGI (HOP-92 NSCLC): 77.8 µM
- GI50 (UACC-257 melanoma): 12.1 µM
- TGI (UACC-257 melanoma): 60.2 µM
- GI50 (NCI-H23 lung): 5.27 µM
- TGI (NCI-H23 lung): 28.9 µM
- GI50 (LOX IMVI melanoma): 3.54 µM
- TGI (LOX IMVI melanoma): 18.1 µM
- GI50 (OVCAR-3 ovarian): 25.2 µM
- TGI (OVCAR-3 ovarian): > 100 µM
- GI50 (U251 CNS): 6.16 µM
- TGI (U251 CNS): 28.5 µM
- GI50 (HT29 colon): 2.89 µM
- TGI (HT29 colon): 17.6 µM
- GI50 (MDA-MB-231 breast): 3.19 µM
- TGI (MDA-MB-231 breast): 28.2 µM
- GI50 (RXF 393 renal): 2.67 µM
- TGI (RXF 393 renal): 12 µM
- GI50 (NCI/ADR-RES ovarian): 3.93 µM
- TGI (NCI/ADR-RES ovarian): 80.6 µM
- GI50 (SK-MEL-2 melanoma): 4.65 µM
- TGI (SK-MEL-2 melanoma): 15.4 µM
- GI50 (SR leukemia): 5.1 µM
- TGI (SR leukemia): 40.9 µM
- GI50 (UO-31 renal): 3.74 µM
- TGI (UO-31 renal): 16 µM
- GI50 (A498 renal): 6.98 µM
- TGI (A498 renal): 39.6 µM
- GI50 (SF-539 CNS): 3.61 µM
- TGI (SF-539 CNS): 14.7 µM
- GI50 (IGROV1 ovarian): 5.1 µM
- TGI (IGROV1 ovarian): > 100 µM
- GI50 (MDA-MB-435): 5.6 µM
- TGI (MDA-MB-435): 25.3 µM
- GI50 (CCRF-CEM leukemia): 14.1 µM
- TGI (CCRF-CEM leukemia): > 100 µM
- GI50 (KM12 colon): 11 µM
- TGI (KM12 colon): 43.5 µM
- GI50 (OVCAR-4 ovarian): 3.26 µM
- TGI (OVCAR-4 ovarian): 27.3 µM
- GI50 (HS 578T breast): 7.38 µM
- TGI (HS 578T breast): > 100 µM
- GI50 (SK-MEL-5 melanoma): 4.58 µM
- TGI (SK-MEL-5 melanoma): 17.1 µM
- GI50 (SNB-75 CNS): 1.69 µM
- TGI (SNB-75 CNS): 7.52 µM
- GI50 (TK-10 renal): 4.9 µM
- TGI (TK-10 renal): 19.8 µM
- GI50 (MCF7 breast): 5.76 µM
- TGI (MCF7 breast): 26.2 µM
- GI50 (NCI-H522 lung): 10.4 µM
- TGI (NCI-H522 lung): 26.7 µM
- GI50 (BT-549 breast): 2.66 µM
- TGI (BT-549 breast): 10.6 µM
- GI50 (A549 NSCLC): 4.43 µM
- TGI (A549 NSCLC): 35 µM
- GI50 (SW-620 colon): 20.4 µM
- TGI (SW-620 colon): > 100 µM
- GI50 (HCT-116 colon): 5.63 µM
- TGI (HCT-116 colon): 32.2 µM
- GI50 (OVCAR-5 ovarian): 5.53 µM
- TGI (OVCAR-5 ovarian): 39.4 µM
- GI50 (M14 melanoma): 3.6 µM
- TGI (M14 melanoma): 14.2 µM
- GI50 (EKVX NSCLC): 2.78 µM
- TGI (EKVX NSCLC): 27.6 µM
- GI50 (HOP-62 NSCLC): 2.9 µM
- TGI (HOP-62 NSCLC): 10.8 µM
- GI50 (OVCAR-8 ovarian): 2.02 µM
- TGI (OVCAR-8 ovarian): 93.6 µM
- GI50 (CAKI-1 renal): 3.15 µM
- TGI (CAKI-1 renal): 26.9 µM
- GI50 (SK-MEL-28 melanoma): 3.51 µM
- TGI (SK-MEL-28 melanoma): 13.1 µM
- GI50 (SN12C renal): 3.02 µM
- TGI (SN12C renal): 24.1 µM
- GI50 (UACC-62 melanoma): 2.28 µM
- TGI (UACC-62 melanoma): 10.2 µM
- GI50 (MOLT-4 leukemia): 10.6 µM
- TGI (MOLT-4 leukemia): 54.1 µM
- GI50 (HCC-2998 colon): 11.4 µM
- TGI (HCC-2998 colon): 35.8 µM
- GI50 (HCT-15 colon): 10.2 µM
- TGI (HCT-15 colon): 44.7 µM
- GI50 (PC-3 prostate): 16.1 µM
- TGI (PC-3 prostate): > 100 µM
- GI50 (COLO 205 colon): 3.89 µM
- TGI (COLO 205 colon): 15.4 µM
- GI50 (ACHN renal): 3.48 µM
- TGI (ACHN renal): 36.1 µM
- GI50 (786-0 renal): 3.47 µM
- TGI (786-0 renal): 17.7 µM
